In ChEMBL document CHEMBL3507680, “University of Dundee, Gates Library screen for HepG2 cell viability” one finds cytotoxicity data, which are given here for 95 molecules.

Each structure is given as a SMILES string.

This data set can be described thus: Human HepG2 cell viability assay in 384 well format. Particulars: HepG2 cells, read-out: Inhibition. Set-up: dose 125 nL, time 70.5 hour; cytotoxicity at 70.5 h: concentration not given beside the values. The data set is classed as toxicity, cell-based.
Take `CC[C@H]1CN2CC[C@H]1C[C@@H]2CNCc1ccc(OC)cc1`: the cytotoxicity at 70.5 h was -3.31%.

Regarding `CN1CCC(N2C[C@H](O)C[C@H]2c2nc(Cc3ccccc3)no2)CC1`, the cytotoxicity at 70.5 h was -7.37%. To `CC(C)(C)NC(=O)C[C@@H]1CCNC[C@@H]1Cc1cc(C(C)(C)C)on1` belongs -1.48%. Take `Cc1ccc(-c2noc([C@@H]3C[C@H](NC(=O)NC(C)C)CN3C)n2)cc1`: the cytotoxicity at 70.5 h was -7.56%. For the molecule `CN1CCN(CC[C@@H]2CC[C@H](O)[C@@H](C(=O)Nc3ccccc3)O2)CC1`, the cytotoxicity at 70.5 h turned out to be 1.15%. Then `O=C1N[C@@H]2CCN(C(=O)C3CC3)[C@@H]2C(=O)N1c1ccccc1`, with -10.7%; and `COc1ccccc1-c1nnc([C@H]2CCN(C(C)=O)C2)o1`, with -6.37%.

Take `c1cc(-c2nnc([C@H]3CCNC3)o2)ccn1`: the cytotoxicity at 70.5 h is -2.31%.

Regarding `CN1C(=O)CO[C@H]2CN(C(=O)Nc3ccc(F)cc3)C[C@H]21`, the cytotoxicity at 70.5 h is -7.97%. Then `Fc1ccc2nc([C@H]3CCNC3)[nH]c2c1`, with -0.112%; and `CC(C)NC(=O)N1CCN2C(=O)OC[C@H]2C1`, with 10.9%. To `F[C@@H]1CN(CC2CC2)C[C@@H]1OCc1nc2ncccc2[nH]1` belongs -3.03%. Then `O=C1NC[C@H]2CN(C3CCOCC3)CCN12`, with -4.38%. Turning to `CC1=C[C@@H](CN2CCCC2)[C@H](C(C)C)C[C@H]1Cc1nnc(C)o1`, the cytotoxicity at 70.5 h was -4.38%.

On to `COCC(=O)NC[C@H]1C[C@@H]2CCN1C[C@@H]2CN1CCc2ccccc2C1`, for which the cytotoxicity at 70.5 h is -12.4%. Then `CC1=C[C@@H](CN2CCOCC2)[C@H](C(C)C)C[C@H]1Cc1nnc(C)o1`, with -5.39%. In the case of `COC(=O)c1cccc2nc([C@H]3CCN(Cc4ccccc4)C3)oc12`, the cytotoxicity at 70.5 h was -11.8%.

For the molecule `CN1CCC[C@H]1c1nc(-c2cncnc2N)no1`, the cytotoxicity at 70.5 h was -7.81%.

On to `Nc1ncncc1-c1noc([C@@H]2CCCN2CC2CC2)n1`, for which the cytotoxicity at 70.5 h worked out at 9.61%. Then `Cc1ccc(S(=O)(=O)NC[C@H]2OC[C@@H](NCc3cccnc3)[C@@H]2O)cc1`, with -7.82%; and `Cn1cncc1-c1nnc([C@H]2CCN(C3CCOCC3)C2)o1`, with -3.04%. To `CN1C[C@@H](F)[C@@H](OCc2nc3ccccc3[nH]2)C1` belongs -5.45%; to `CC(C)NC(=O)NC[C@H]1OC[C@@H](NCc2ccc(F)cc2)[C@@H]1O`, -4.37%. Then `CC(C)(C)c1cc(C[C@H]2CNCC[C@H]2CC(=O)Nc2ccccc2)no1`, with -2.1%. Turning to `CC(C)NC[C@H]1COCc2nc3cccnc3n21`, the cytotoxicity at 70.5 h is -8.17%.

Regarding `CS(=O)(=O)N1CC[C@H](c2nc3ccc(C(F)(F)F)cc3[nH]2)C1`, the cytotoxicity at 70.5 h is -4.96%. In the case of `FC(F)(F)Oc1ccc(-c2noc([C@@H]3Cc4nc[nH]c4CN3)n2)cc1`, the cytotoxicity at 70.5 h is -4.51%. Regarding `CN1CCC(N2CC[C@H](c3nc4ccc(C(F)(F)F)cc4[nH]3)C2)CC1`, the cytotoxicity at 70.5 h was -13.2%. With `O=C1CO[C@H]2CN(C3CCOCC3)C[C@H]2N1Cc1ccccn1`, the cytotoxicity at 70.5 h is 1.72%. In the case of `COCc1ccc(CN[C@H]2C[C@@H](Cc3cc(CCO)on3)C2(C)C)o1`, the cytotoxicity at 70.5 h was -1.61%.

On to `COc1ccc(-c2noc([C@@H]3C[C@@H](O)CN3C3CCOCC3)n2)cc1`, for which the cytotoxicity at 70.5 h was 41.8%. Then `CC(C)C[C@@H]1N[C@H](C(=O)NC2CCOCC2)Cc2c[nH]c3cccc1c23`, with -4.79%; and `CN1C(=O)CO[C@H](c2ccc(NC(=O)c3cccc(F)c3)cc2)[C@H]1CO`, with -0.0128%. With `CC(=O)N1CCC(N2CCOC[C@H]2c2nc(-c3cccnc3)c[nH]2)CC1`, the cytotoxicity at 70.5 h was 17.9%. Then `CC(C)(C)CC(=O)NC[C@H]1OC[C@@H](NCc2ccccn2)[C@@H]1O`, with -10.1%. For `CCC(C(=O)N(C)Cc1cc(-c2ccccc2)n[nH]1)n1cccn1` (stereo not given), the cytotoxicity at 70.5 h is -13.1%. Regarding `c1ccc(CCCn2ccnc2-c2cn(C3CCNCC3)nn2)nc1`, the cytotoxicity at 70.5 h was found to be 22.4%. Then `CCNc1ncc(C(=O)NC(c2ccccc2)c2ccco2)cn1` (stereo not given), with -9.5%; and `Cc1ccc2cc(CNCCCO)c(=O)[nH]c2c1`, with -2.37%; and `CC(=O)N1CCCCC1c1cc(C(=O)N2CCOCC2)[nH]n1` (stereo not given), with -7.33%. On to `Cc1ccccc1CNc1nc(O)cc(C2CC(=O)N(C)C2)n1` (stereo not given), for which the cytotoxicity at 70.5 h is -7.17%.

Turning to `COc1cccc(CNc2nc(O)cc(C3CC(=O)N(C)C3)n2)c1` (stereo not given), the cytotoxicity at 70.5 h is -11.6%. Then `CNc1cc(CNC(=O)c2ccccc2)nc(-c2ccncc2)n1`, with 11.4%. To `CNc1cc(CNC(=O)c2ccccn2)nc(-c2ccncc2)n1` belongs 11.9%; to `O=C(CC1CCCC1)N1CCCC(c2n[nH]c3nccnc23)C1` (stereo not given), -0.397%.

In the case of `CC(=O)N1CCC(c2nccnc2Oc2ccccc2)CC1`, the cytotoxicity at 70.5 h is 1.62%.

For `Cn1ccc(C(=O)N2CCC(Cc3cccc4cccnc34)C2)n1` (stereo not given), the cytotoxicity at 70.5 h is -5.77%. Turning to `Cn1ccc(C(=O)N2CCC(Cc3cnc4[nH]ccc4c3)CC2)n1`, the cytotoxicity at 70.5 h was -5.86%. Then `CNc1cccc(C2CCCN(C(=O)c3ccncc3)C2)n1` (stereo not given), with -2.97%; and `Cn1ccnc1CN1CCCC(Cc2ccccn2)C1` (stereo not given), with 34.7%; and `O=C(c1cccs1)N1CCC(O)(CN2CCc3ccccc3C2)C1` (stereo not given), with -2.95%.

`COc1ccc(CN(C)[C@@H]2CN(C(=O)c3cccs3)C[C@H]2O)cc1`: the cytotoxicity at 70.5 h was -6.31%. Then `COc1cnc(C2(O)CCN(C(=O)c3cccnc3)CC2)c(OC)n1`, with -4.88%; and `COc1cnc(C2(O)CCN(C(=O)c3ccncc3)CC2)c(OC)n1`, with -4.69%. Then `CC(=O)NCCc1cc(N2CCN(C(C)=O)CC2)nc(C2CC2)n1`, with -5.29%; and `CNc1cncc(C2CCCN2Cc2ccccn2)n1` (stereo not given), with -6.51%.

As for `CC(=O)N1CCCCC1c1nc2c(c(N3CCCCC3)n1)CN(C)CC2` (stereo not given), the cytotoxicity at 70.5 h is -1.02%. Consider `CC(C)c1nccn1-c1cccc(C2CCN(C)CC2)n1`, for which the cytotoxicity at 70.5 h is 27.3%. With `Cc1cc(-c2cnn(CCNC(=O)C3CCCO3)c2C2CC2)on1` (stereo not given), the cytotoxicity at 70.5 h is -9.36%. `O=C(Cn1cccnc1=O)NC(Cc1ccsc1)c1ccccn1` (stereo not given): the cytotoxicity at 70.5 h was -11.2%. Then `CS(=O)(=O)c1snnc1C1CCN(Cc2ccncc2)CC1`, with -7.11%; and `COc1cc2nc3n(c(=O)c2cc1OC)CCN(C(C)=O)CC3`, with -13.7%; and `CCCNCc1cc2c(C)cc(C)cc2n2c(=O)n(C)nc12`, with -8.78%. `O=C(Cn1ccnc1)N1C[C@@H]2CC[C@H](Oc3ccccc3Cl)[C@@H]2C1`: the cytotoxicity at 70.5 h came out at 1.01%. Take `CN(C)CC(=O)N1C[C@@H]2CC[C@H](Oc3ccccc3Cl)[C@@H]2C1`: the cytotoxicity at 70.5 h was -15.6%. As for `CC(C)N1CCC(Cc2cnc(-c3cccc(C(=O)O)c3)cn2)C1` (stereo not given), the cytotoxicity at 70.5 h is -19.1%. With `CN(C)Cc1ccnc(C2CCCN2Cc2ccncc2)n1` (stereo not given), the cytotoxicity at 70.5 h was found to be 18.5%.

Take `Cc1cnccc1CN1C[C@@H](O)[C@H](Oc2ccccc2)C1`: the cytotoxicity at 70.5 h was -5.34%. Regarding `CNC(=O)C1(c2cnccn2)CCCN1C(=O)c1ccccc1OC` (stereo not given), the cytotoxicity at 70.5 h is 13.3%. Then `Cc1ccccc1S(=O)(=O)N1CCCCC1c1ccn[nH]1` (stereo not given), with -28.4%; and `Cc1cncc(C2CCCN(C(=O)c3ccc(C)[nH]c3=O)C2)n1` (stereo not given), with -4.5%; and `Cc1cc(-c2cnn(CCNC(=O)C3CC3)c2C2CC2)on1`, with 27%. As for `Cn1ccnc1CN1CCOCC(Cc2ccccn2)C1` (stereo not given), the cytotoxicity at 70.5 h was -12.6%. To `O=S(=O)(c1ccccc1Cl)N1CCc2nc(C3CCNCC3)ncc2C1` belongs -3.67%; to `CCC(=O)N1CCC(O)(c2ncc(OC)nc2OC)CC1`, -12.8%; to `O=C(c1ccc(F)cc1F)N1CC[C@H](O)[C@@H](N2CCOCC2)CC1`, -13.9%. Then `CC(C)(N)C(=O)N1CCCC1c1cncc(Oc2ccc(F)cc2)n1` (stereo not given), with 0.148%; and `CCC(=O)N1CCC(Cc2nccnc2Nc2ccccn2)CC1`, with 20.4%; and `COc1cccc(OC)c1CN1CCC2(CC(Nc3ccncn3)C2)C1` (stereo not given), with -9.12%. Consider `NC[C@H]1CC[C@H](C(NC(=O)c2ccccc2)c2ccccn2)CC1` (stereo not given in full), for which the cytotoxicity at 70.5 h came out at 11.1%.

On to `Cn1cc(C(=O)N2CCC(Cc3nccs3)CC2)cn1`, for which the cytotoxicity at 70.5 h is 22.3%.

In the case of `CC(=O)N1CCCC1c1csc(Nc2cnccn2)n1` (stereo not given), the cytotoxicity at 70.5 h was -4.91%.

Turning to `CC(=O)N1CCCC1c1cc(N2CCN(C3CCCC3)CC2)cc(C)n1` (stereo not given), the cytotoxicity at 70.5 h is -7.01%.

On to `Cc1nc(-c2ccc(C(=O)O)cc2)cc(C2CCN(C(C)C)C2)n1` (stereo not given), for which the cytotoxicity at 70.5 h is -9.52%. To `Cc1cc(C(=O)N[C@H](C)c2onc(C)c2C(=O)O)c(C)o1` belongs -4.02%; to `Cc1noc([C@@H](C)NCc2cccc(Cl)c2)c1C(=O)O`, 2.52%. To `CC(=O)NC[C@@]1(COc2cnccn2)C[C@@H](O)[C@@H](O)C1` belongs -3.14%; to `Cn1nc(C2CCCN(Cc3cccc(F)c3)C2)c2nccnc21` (stereo not given), -4.33%. For `OC[C@H]1CC[C@]2(CC1)CN(Cc1ccccn1)Cc1ccccc1O2`, the cytotoxicity at 70.5 h is -13.2%. Then `Cc1cc(C)n(CC(=O)NC(Cc2ccsc2)c2ccccn2)c(=O)n1` (stereo not given), with 13.9%.

On to `Fc1ccc(CN2CCC(c3n[nH]c4ncccc34)CC2)cc1F`, for which the cytotoxicity at 70.5 h came to 22.2%. `Cc1ccc(=O)n(CC2(O)CCN(Cc3cc(C)c(O)c(C)c3)CC2)n1`: the cytotoxicity at 70.5 h stood at 22.7%.

Consider `Cc1nc(O)cc(C2CCN(Cc3cccc(F)c3F)C2)n1` (stereo not given), for which the cytotoxicity at 70.5 h was -14.5%. On to `COc1ccc(F)c(CN2CCC(c3cc(O)nc(C)n3)C2)c1` (stereo not given), for which the cytotoxicity at 70.5 h turned out to be 32.2%. Take `Cc1ccc(CN(Cc2cccnc2)C2CC(C)(C)NC(C)(C)C2)s1`: the cytotoxicity at 70.5 h came out at 9.23%.
